# Assays:
# Format in all cases: in vivo
# [1] = system: Zea mays (corn), cv. 'Lorenzo'; assay: Post-emergence application of herbicide H2 (foramsulfuron) after seed dressing with safener; conditions: seed dressing with safener 1 g a.i./kg of seed
# Method: The number of crop plant seeds required for each application rate of safener was calculated. Sufficient seeds were weighed-out into glass bottles having a screw-on lid. The volume of the glass bottles was approximately twice that of the seeds weighed out. The safeners were formulated as 20 percent strength water-dispersible powders. These formulations were weighed out to give the required application rates (g of a.i./kg of seed). The samples were added to the seed in the glass containers, and sufficient water to form a suitable seed dressing was then added. The glass bottles were closed and then mounted in an overhead shaker (which turns the bottles at moderate speed for a period of up to one hour) so that the seeds were uniformly covered with the seed dressing. The bottles were opened and the seed was ready for use in pre-emergence or post-emergence experiments, as described below. The seeds treated with safener and untreated seeds were sown in sandy loam soil in round plastic pots of a diameter of 13 cm and covered with a layer of sandy loam of a thickness of about 1 cm. The pots were placed in a greenhouse under favorable growth conditions for a period of about two to three weeks, allowing the plants to reach a growth stage of 2 to 4 leaves. The herbicides in the form of liquid (for example emulsion concentrates) or dry (for example water-dispersible powders) formulations were mixed with a standard additive (based on rapeseed oil methyl ester), diluted with deionized water to the required concentrations and applied to the green parts of the plants and the uncovered part of the soil surface with a spray bar using a water application rate of 300 liters per hectare. In the experiment shown below, the herbicide foramsulfuron was used as 20 percent strength water-dispersible powder (results see table 2.3.1). The pots were placed in a greenhouse under favorable growth conditions. Visual scoring of the herbicidal action was carried out four weeks after the herbicide application. Evaluation was carried out on a percentage basis by comparison with untreated control plants (0%=no noticeable effect compared with the untreated plant, 100%=treated plant dies).
# [2] = system: Setaria viridis; assay: Pre-emergence application of herbicide H1 (isoxaflutole) and safener by the tank mix method: herbicidal action; conditions: four weeks
# Method: (§1) Seeds of various crop plants and weed species were sown in sandy loam soil in round plastic pots of a diameter of 13 cm and covered with a layer of sandy loam of a thickness of about 1 cm. Herbicides and safeners in the form of liquid (for example emulsion concentrates) or dry (for example water-dispersible powders) formulations were diluted with deionized water to the required concentrations and applied to the surface of the soil with a spray bar using a water application rate of 300 liters per hectare. In the experiment shown below, the safeners were used as 20 percent strength water-dispersible powders and the herbicide isoxaflutole was used as an aqueous suspension concentrate (see table 1.1.1). The pots were placed in a greenhouse under favorable growth conditions. Visual scoring of the herbicidal action was carried out four weeks after the herbicide application. Evaluation was carried out on a percentage basis by comparison with untreated control plants (0%=no noticeable effect compared with the untreated plant, 100%=treated plant dies).
# [3] = system: Chenopodium album; assay: as above; conditions: four weeks
# Method: as §1
# [4] = system: Setaria viridis; assay: Post-emergence application of herbicide H2 (foramsulfuron) and safener by the tank mix method: herbicidal action; conditions: safener 250 g a.i./ha + herbicide H2 (foramsulfuron) 40 g a.i./ha, post-emergence tank mix; four weeks
# Excerpt: (§2) Seeds of various crop plants and weed species were sown in sandy loam soil in round plastic pots of a diameter of 13 cm and covered with a layer of sandy loam of a thickness of about 1 cm. The pots were placed in a greenhouse under favorable growth conditions for a period of about two to three weeks, allowing the plants to reach a growth stage of 2 to 4 leaves. The herbicides in the form of liquid (for example emulsion concentrates) or dry (for example water-dispersible powders) formulations were mixed with a standard additive (based on rapeseed oil methyl ester), diluted with deionized water to the required concentrations and applied to the green parts of the plants and the uncovered part of the soil surface with a spray bar using a water application rate of 300 liters per hectare. In the experiment shown below, safener and the herbicide foramsulfuron were in each case used as 20 percent strength water-dispersible powder (results see table 1.2.1). The pots were placed in a greenhouse under favorable growth conditions. Visual scoring of the herbicidal action was carried out four weeks after the herbicide application. Evaluation was carried out on a percentage basis by comparison with untreated control plants (0%=no noticeable effect compared with the untreated plant, 100%=treated plant dies).
# [5] = system: Amaranthus retroflexus; assay: as above; conditions: safener 250 g a.i./ha + herbicide H2 (foramsulfuron) 40 g a.i./ha, post-emergence tank mix; four weeks
# Excerpt: as §2
# [6] = system: Zea mays (corn), cv. 'Lorenzo'; assay: Post-emergence application of herbicide H3 (glufosinate-ammonium) and safener by the tank mix method: crop damage
# Excerpt: (§3) Seeds of various crop plants and weed species were sown in sandy loam soil in round plastic pots of a diameter of 13 cm and covered with a layer of sandy loam of a thickness of about 1 cm. The pots were placed in a greenhouse under favorable growth conditions for a duration of about two to three weeks, allowing the plants to reach a growth stage of 2 to 4 leaves. The herbicides, in the form of liquid (for example emulsion concentrates, aqueous solutions) or dry (for example water-dispersible powders) formulations, were diluted with deionized water to the required concentrations and applied to the green parts of the plants and the uncovered part of the surface of the soil with a spray bar using a water application rate of 300 liters per hectare. In the experiment shown below, the safeners were used as 20 percent strength water-dispersible powders and the herbicide glufosinate-ammonium as a commercial 20 percent strength aqueous surfactant-containing solution (results see table 1.2.2).
# (§4) The pots were placed in a greenhouse under favorable growth conditions. Visual scoring of the herbicidal action was carried out four weeks after the herbicidal application. Evaluation was carried out on a percentage basis by comparison with untreated control plants (0%=no noticeable effect compared with the untreated plant, 100%=treated plant dies).
# [7] = system: Zea mays (corn), cv. 'Lorenzo'; assay: Post-emergence application of herbicide H2 (foramsulfuron) and safener by the tank mix method: crop damage; conditions: safener 250 g a.i./ha + herbicide H2 (foramsulfuron) 40 g a.i./ha, post-emergence tank mix; for Safener action as % damage reduction in crop plants: ZEAMA, versus herbicide alone; for % damage in ZEAMA: visual scoring four weeks after application
# Excerpt: as §2
# [8] = system: Chenopodium album; assay: Post-emergence application of herbicide H3 (glufosinate-ammonium) and safener by the tank mix method: herbicidal action; conditions: four weeks
# Excerpt: as §3, §4
# [9] = system: Amaranthus retroflexus; assay: as above; conditions: four weeks
# Excerpt: as §3, §4
# [10] = system: Zea mays (corn), cv. 'Lorenzo'; assay: Pre-emergence application of herbicide H1 (isoxaflutole) and safener by the tank mix method: crop damage
# Method: as §1
# [11] = system: Zea mays (corn), cv. 'Lorenzo'; assay: Pre-emergence application of herbicide H1 (isoxaflutole) after seed dressing with safener; conditions: for % damage in ZEAMA: four weeks
# Method: (§5) The number of crop plant seeds required for each application rate of safener was calculated. Sufficient seeds were weighed-out into glass bottles having a screw-on lid. The volume of the glass bottles was approximately twice that of the seeds weighed out.
# (§6) The safeners were formulated as 20 percent strength water-dispersible powders. These formulations were weighed out to give the required application rates (g of a.i./kg of seed). The samples were added to the seed in the glass containers, and sufficient water to form a suitable seed dressing was then added. The glass bottles were closed and then mounted in an overhead shaker (which turns the bottles at moderate speed for a period of up to one hour) so that the seeds were uniformly covered with the seed dressing. The bottles were opened and the seed was ready for use in pre-emergence or post-emergence experiments, as described below.
# (§7) The seeds which had been treated with safeners and untreated seeds as controls were sown in sandy loam soil in round plastic pots of a diameter of 13 cm and covered with a layer of sandy loam of a thickness of about 1 cm. The herbicides in the form of liquid (for example emulsion concentrates) or dry (for example water-dispersible powders) formulations were diluted with deionized water to the required concentrations and applied to the surface of the soil with a spray bar using a water application rate of 300 liters per hectare. In the two experiments shown below (results see tables 2.2.1 and 2.2.2), the herbicide isoxaflutole was used as an aqueous suspension concentrate.
# as §4, with “after the herbicide application. Evaluation” for “after the herbicidal application. Evaluation”
# [12] = system: Glycine max (soybean), cv. 'Lambert'; assay: as above; conditions: for % damage in GLXMA: four weeks
# Method: as §5, §6, §7
# as §4, with “after the herbicide application. Evaluation” for “after the herbicidal application. Evaluation”
# [13] = safener 250 g a.i./ha + herbicide H1 (isoxaflutole) 100 g a.i./ha, pre-emergence tank mix
# [14] = safener 250 g a.i./ha + herbicide H3 (glufosinate-ammonium) 250 g a.i./ha, post-emergence tank mix
# [15] = seed dressing with safener 1 g a.i./kg of seed, then herbicide H1 (isoxaflutole) 100 g a.i./ha pre-emergence
# [16] = herbicide H1 (isoxaflutole) 100 g a.i./ha alone, no safener, pre-emergence
# [17] = untreated seed (no safener), herbicide H1 (isoxaflutole) 100 g a.i./ha pre-emergence
# [18] = herbicide H3 (glufosinate-ammonium) 250 g a.i./ha alone, no safener, post-emergence
smiles,measurement,setting,value
"O=C(O)C=Cc1ccccc1O [Comp. 17, 2-hydroxycinnamic acid]",Safener action as % damage reduction in crop plants,"[1]; ZEAMA, herbicide H2 (foramsulfuron) 40 g a.i./ha post-emergence, versus untreated seed",81%
same,% damage in ZEAMA,"[1]; then herbicide H2 (foramsulfuron) 40 g a.i./ha post-emergence, four weeks",6%
same,Herbicidal action as % damage in SETVI,[2]; [13],96%
same,Herbicidal action as % damage in CHEAL,[3]; [13],94%
same,Herbicidal action as % damage in SETVI,[4],98%
same,Herbicidal action as % damage in AMARE,[5],94%
same,Safener action as % damage reduction in crop plants,"[6]; ZEAMA, safener 250 g a.i./ha + herbicide H3 (glufosinate-ammonium) 250 g a.i./ha, post-emergence tank mix, versus herbicide alone",61%
same,% damage in ZEAMA,"[6]; safener 250 g a.i./ha + herbicide H3 (glufosinate-ammonium) 250 g a.i./ha, post-emergence tank mix, visual scoring four weeks after application",24%
same,Safener action as % damage reduction in crop plants,[7],78%
same,% damage in ZEAMA,[7],8%
same,Herbicidal action as % damage in CHEAL,[8]; [14],97%
same,Herbicidal action as % damage in AMARE,[9]; [14],95%
same,Safener action as % damage reduction in crop plants,"[10]; ZEAMA, safener 250 g a.i./ha + herbicide H1 (isoxaflutole) 100 g a.i./ha, pre-emergence tank mix, versus herbicide alone",82%
same,% damage in ZEAMA,"[10]; safener 250 g a.i./ha + herbicide H1 (isoxaflutole) 100 g a.i./ha, pre-emergence tank mix, visual scoring four weeks after application, 0%=no effect, 100%=plant dies",5%
same,Safener action as % damage reduction in crop plants,"[11]; ZEAMA, seed dressing with safener 1 g a.i./kg of seed, herbicide H1 (isoxaflutole) 100 g a.i./ha pre-emergence, versus untreated seed",68%
same,% damage in ZEAMA,[11]; [15],8%
same,Safener action as % damage reduction in crop plants,"[12]; GLXMA, seed dressing with safener 1 g a.i./kg of seed, herbicide H1 (isoxaflutole) 100 g a.i./ha pre-emergence, versus untreated seed",60%
same,% damage in GLXMA,[12]; [15],33%
"O=C(O)C=Cc1ccccc1F [Comp. 146, 2-fluorocinnamic acid]",Herbicidal action as % damage in SETVI,[4],92%
same,Herbicidal action as % damage in AMARE,[5],98%
same,Safener action as % damage reduction in crop plants,[7],72%
same,% damage in ZEAMA,[7],10%
"CS(=O)(=O)c1cc(C(F)(F)F)ccc1C(=O)c1cnoc1C1CC1 [Herbicide H1, isoxaflutole, reference compound]",Herbicidal action as % damage in SETVI,[2]; [16],95%
same,Herbicidal action as % damage in CHEAL,[3]; [16],92%
same,% damage in ZEAMA,"[10]; herbicide H1 (isoxaflutole) 100 g a.i./ha alone, no safener, pre-emergence, four weeks",27%
same,% damage in ZEAMA,[11]; [17],25%
same,% damage in GLXMA,[12]; [17],83%
"CP(=O)(O)CCC(N)C(=O)O (stereo not drawn) [Herbicide H3, glufosinate-ammonium, reference compound]",% damage in ZEAMA,"[6]; herbicide H3 (glufosinate-ammonium) 250 g a.i./ha alone, no safener, post-emergence, four weeks",62%
same,Herbicidal action as % damage in CHEAL,[8]; [18],92%
same,Herbicidal action as % damage in AMARE,[9]; [18],90%
